These results are taken from patent US7164003B2, “Histamine receptor H4 polynucleotides” (Merck & Co. Inc., priority 2001, dated 2007).

In one assay the test system is H4b receptor variant. Conditions: 1 μM in PBS, 37° C., 30 min, transfected COS-7 cells, H4b variant cDNA, compared with H4a-transfected cells. The method, then: (§1) The full length wild type […]) and the isoforms H4b and […] were cloned in pCDNA3.1 […] Tag eukaryotic expression vector for expression in COS-7 cells. The COS-7 cells grown in culture chambers were transfected with 2 μg of plasmid DNA containing either one of the H4 isoforms or the wild type H4 with superfect (Qiagen) transfection reagent. Binding of Histamine to receptor or receptor variants was determined by BODIPY-L-Histamine or Fluorescein Histamine (Molecular Probes, Eugene Oreg.). Briefly, the transfected cells were washed with PBS and 1 μM concentration of BODIPY-L-Histamine or Fluorescein Histamine in PBS was added to the cells and incubated at 37° C. for 30-min. Unbound fluorescent labelled histamine was washed in cold PBS and the slides were examined immediately under a fluorescent microscope.

The subject of a further assay is H4c receptor variant. Conditions: 1 μM in PBS, 37° C., 30 min, transfected COS-7 cells, H4c variant cDNA, compared with H4a-transfected cells. The method, then:
as §1

As to BODIPY-L-Histamine, the “Binding of fluorescent labelled histamine (fluorescence under microscope) versus H4 wildtype (H4a)” value with H4b receptor variant and in the assay on H4c receptor variant was “qualitatively comparable fluorescence” each time.
For Fluorescein Histamine, the “Binding of fluorescent labelled histamine (fluorescence under microscope) versus H4 wildtype (H4a)” value in the assay on H4b receptor variant and in the assay on H4c receptor variant was “qualitatively comparable fluorescence” in each case.
